Measured values reported in US20020184551A1, “Process for the preparation of deactivated rice bran lipase” (COUNCIL OF SCIENTIFIC & INDUSTRIAL RESEARCH, priority 2001, published 2002).
Read-outs that look alike come from different tables or passages of the source.

Experiments:
[1] = tested on: rice bran lipase; conditions: lipase 2 mg/ml, substrate 5% w/v, CaCl2 0.1 M
Protocol: To approximately 2 mg of rice bran lipase in 0.05 M sodium phosphate buffer, pH 7.4 is added different concentrations of ligands ranging from 1:10 to 1:1500 mole to mole ratio of protein to ligand and incubated for 1 h at30° C. in Innova™ 4000 incubator shaker at 150 rpm. The reaction mixture was checked for enzyme activity by pH-stat method using Mettler Toledo DL12 titrator using 5% solution of triacetin or tributyrin as substrate. Respective blank solutions where the enzyme was inactivated by the addition of distilled alcohol was also used. The activity was expressed in terms of control activity as microequivalents of alkali consumed per mg of protein per hour.
To approximately 2 mg of rice bran lipase in 0.05 m sodium phosphate buffer, pH 7.4 is added different concentrations of ligand ranging from 1:10 to 1:1500 on a mole to mole ratio and incubated fpr 1 hr at 30° C. in Innova™ 4000 incubator shaker at 150 rpm. The reaction mixture was checked for enzyme activity by pH start method using mettler Toledo DL 12 titrator using 5% solution of triacetin or tributyrin as substrate. Respective blank solutions where the enzyme was inactivated by the addition of distilled alcohol was also used. The activity was expressed in terms of control activity as micro equivalent of alkali consumed per mg of protein per hour.

[2] = tested on: rice bran lipase
Source text: The enzyme solution containing different concentrations of ligands was passed through a sephadex G25 column which was previously equilibrated with the elution buffer. The protein eluting immediately after the void volume was collected and assayed for the activity.
The enzyme was also checked for reversibility of its original activity after removal of ligands by gel filtrations on Sephadex G-25 column.

Q: With benzene boronic acid [ligand] as the substance, how does the “loss of initial activity of rice bran lipase” value ([1]; 1:10 mole to mole ratio of protein to ligand) read?
A: Its value is 35%.

Q: What about the “loss of initial activity of rice bran lipase” value ([1]; 1:1500 mole/mole protein to ligand) of the same substance?
A: Its value is about 77%.

Q: And the “reversibility of enzyme activity after removal of ligand” value ([2]; 1:10 ratio, Sephadex G-25 column chromatography)?
A: The value was “able to recover the initial activity”.

Q: And the “reversibility of enzyme activity after removal of ligand” value ([2]; 1:1500 mole to mole ratio, gel filtration on Sephadex G-25 column)?
A: The value was “recovered almost its original activity”.
